Measured values: ChEMBL document CHEMBL1201862, “PubChem BioAssay data set” (2004)
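Step 1: Grow cells in 96-well plates. Step 2: Expose to compound for 48 hours at 5 concentrations. Step 3: Interpolate endpoints linearly; if unreached, use highest concentration. At the GI50, growth is halved.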 Active and inactive are the calls of the source. Rule as the data show it: active = GI50 up to about 1.1 µM and inactive = higher.

Legend:
Assay in all cases: inhibition of tumour cell growth, NCI panel, 48 h
[1] = test system: HCT-116
[2] = test system: OVCAR-5
[3] = test system: SK-OV-3
[4] = test system: U-251
[5] = test system: HOP-92
[6] = test system: NCI-H460
[7] = test system: EKVX
[8] = test system: SN12C
[9] = test system: MCF7
[10] = test system: M14
[11] = test system: Hs-578T
[12] = test system: SF-539
[13] = test system: SR
[14] = test system: PC-3
[15] = test system: SK-MEL-5
[16] = test system: SNB-75
[17] = test system: NCI-H522
[18] = test system: SF-268
[19] = test system: MDA-MB-435
[20] = test system: RXF 393

Measured: GI50

COc1cc(C)c2c(=O)c3ccccc3n(C)c2c1
inactive: [1] 18.5 µM | [2] 16.9 µM | [3] 43.1 µM | [4] 20 µM | [5] 7.43 µM | [6] 33.3 µM | [7] 35 µM | [8] 20.7 µM | [9] 28.2 µM | [10] 27.2 µM | [11] 40.4 µM | [12] 15.6 µM | [13] 15.6 µM | [14] 28.8 µM | [15] > 10 µM | [16] 26.4 µM | [17] 2.54 µM | [18] 30.5 µM | [19] 40.8 µM | [20] 14.2 µM

Nc1c2ccccc2nc2ccc(C(=O)Nc3ccc(S(N)(=O)=O)cc3)cc12
inactive: [1] > 100 µM | [2] > 100 µM | [3] > 100 µM | [4] > 100 µM | [5] > 100 µM | [6] > 100 µM | [7] > 100 µM | [8] > 100 µM | [9] > 100 µM | [10] > 100 µM | [11] > 100 µM | [12] > 100 µM | [13] > 100 µM | [14] > 100 µM | [15] > 100 µM | [16] > 100 µM | [17] > 100 µM | [18] > 100 µM | [19] > 100 µM | [20] > 100 µM

COC1=C(NC(C)=O)C(=O)c2nc3n(c2C1=O)CCC3
inactive: [1] 15.7 µM | [2] 18.7 µM | [3] 41.6 µM | [4] 23.8 µM | [5] 13.2 µM | [6] 27.5 µM | [7] 19.5 µM | [8] 17.9 µM | [9] 23.1 µM | [10] 18.2 µM | [11] 30.8 µM | [12] 18.6 µM | [13] 36.9 µM | [14] 34.8 µM | [15] 17.5 µM | [16] 17.6 µM | [17] 22.5 µM | [18] 17.7 µM | [19] 3.64 µM | [20] 17.7 µM

Fc1cccc(F)c1C1SCc2nc3cc(Cl)ccc3n21 (stereo not given)
inactive: [1] 18.5 µM | [2] 84.1 µM | [3] 80.2 µM | [4] 22 µM | [5] 36.6 µM | [6] 41.5 µM | [7] 36.6 µM | [8] 56.5 µM | [9] 15 µM | [10] 31 µM | [11] > 44.7 µM | [12] 80.9 µM | [13] 17.8 µM | [14] 34.4 µM | [15] 16 µM | [16] 40.1 µM | [17] 39.7 µM | [18] > 100 µM | [19] 33 µM | [20] 48.8 µM

C[C@H](Nc1nc(N)c(N=O)c(=O)n1C)C(=O)O
inactive: [1] > 10 µM | [2] > 10 µM | [3] > 10 µM | [4] > 10 µM | [5] > 10 µM | [6] > 10 µM | [7] > 10 µM | [8] > 10 µM | [9] > 10 µM | [10] > 10 µM | [11] > 10 µM | [12] > 10 µM | [13] > 10 µM | [14] > 10 µM | [15] > 10 µM | [16] > 10 µM | [17] > 10 µM | [18] > 10 µM | [19] > 10 µM | [20] > 10 µM
